Values of other authors, collected in patent publication US20180371542A1, “OPIOID RECEPTOR BLOCKADE IN TREATING ALCOHOL USE DISORDERS” (MUSC Foundation for Research Development, priority 2017, published 2018).

System: DSM-IV alcohol dependent individuals
Settings: all subjects irrespective of genotype; initial report (Schacht et al., 2017)

Question: With `O=C1CC[C@@]2(O)[C@H]3Cc4ccc(O)c5c4[C@@]2(CCN3CC2CC2)[C@H]1O5` [naltrexone] as the compound, how does the “Main effect of naltrexone over placebo overall” value read?
Answer: Its value is “significant main effect of naltrexone over placebo”.
